PubChem BioAssay AID449764 (Southern Research Specialized Biocontainment Screening …, 2010)

The compounds below were run on Mycobacterium tuberculosis H37Rv growth inhibition, no glycerol (assay: Mycobacterium tuberculosis H37Rv growth inhibition, no glycerol, confirmatory dose response (AID 449764;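 further: growth read after 7 days of incubation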)). Conditions: not given.

Row | Compound | IC50 [µM]
1 | Nc1nc2ccccc2n1CCOc1ccccc1Cl | 20.3
2 | COc1ccc(OCc2cccc(C(=O)Nn3cc([N+](=O)[O-])cn3)c2)cc1 | 26.2
3 | O=C(NCCC1=CCCCC1)c1c(O)nc2sccn2c1=O | 66
4 | O=S(=O)(c1ccc(Cl)cc1)c1snnc1-c1ccccc1 | 18.8
5 | CSc1nsc(SCC(=O)Nc2ccc(F)cc2F)n1 | 88.7
6 | Cc1ccc(-c2csc3ncnc(Nc4ccc(N5CCOCC5)cc4)c23)cc1 | 23.9
7 | CON(C)c1nc(C2CCCCC2)c2cc(C)ccc2n1 | 57.4
8 | CCCCCCCCn1cnc2c(N)c(C)c(C)cc21 | 59.8
9 | N/C(=N\OC(=O)Nc1ccc(Cl)c(Cl)c1)c1ncc(C(F)(F)F)cc1Cl | 28.9
10 | c1ccc(CN2CCN(CCCNc3ccc4nnc(-c5ccccc5)n4n3)CC2)cc1 | 22.1
11 | Cc1ccc2c(c1)c(C1=c3ccccc3=NC1=O)c(O)n2C | 2.95
12 | Cc1nc(N2CCN(c3ccccn3)CC2)c2c(C)c(C(=O)N3CCN(c4ccc(F)cc4)CC3)sc2n1 | 11.2
13 | Clc1cccc(-c2cc3nc4c(c(NCc5ccco5)n3n2)CCCC4)c1 | 22.1
14 | CCN(Cc1ccccc1)c1ccc(/C=N/N=C(N)N)cc1 | 18.8
15 | NC(N)=N/N=C/c1ccc(N(c2ccccc2)c2ccccc2)cc1 | 9.86
16 | COc1ccc(C(=O)C[n+]2ccc3c(c2)nc(-c2cc(OC)c(OC)cc2OC)n3C)cc1 | 11.6
17 | CC12CCC(=O)N1C(C(=O)Nc1ccc(SC(F)F)cc1)CS2 (centres undefined) | 47.8
18 | Cc1nc(NC(=O)CC(C)C)sc1-c1csc(Nc2ccc(Cl)cc2Cl)n1 | 40.2
19 | c1cc(Nc2cccc3nccnc23)c2nccnc2c1 | 24.4
20 | N#C/C=C\Oc1ccc(Cl)cc1N | 21.5
21 | CC1=NOC(=O)/C1=C/c1ccc(-c2ccc(Cl)cc2)o1 | 18.4
22 | COc1nn(-c2ccccc2)c(=O)c(Cl)c1Cl | 10.3

Row | Compound | IC50 [µM]
23 | O=[N+]([O-])c1ncccc1Oc1nc(-c2cccnc2)nc2ccccc12 | 0.82
24 | Cc1ccc(NCc2ccc(O)c3ncccc23)cc1C | 96.3
25 | Cc1nn(Cc2ccccc2Cl)c2sc(C(=O)NCCCn3ccnc3)cc12 | 37.4
26 | C[C@@H]1CCCCCCCCC(=O)OCCN[C@H](C)CCCCCCCCC(=O)OCCN[C@H](C)CCCCCCCCC(=O)OCCN1 | 31.8
27 | N#C/C(=N/Nc1ccc(OC(F)(F)F)cc1)C(N)=S | 1.19
28 | CCNC(=S)NN=C1c2ccccc2-c2ccccc21 | 11
29 | COC(=O)c1cc(-c2cccc(OC)c2)on1 | 10.5
30 | CCOC(=O)c1ccc(NC(=O)CCc2nc(-c3ccc(Cl)cc3)no2)cc1 | 48.1
31 | CC(C)OC(=O)/C(C#N)=C/c1ccc(-c2ccc(SC(F)F)cc2)o1 | 5.19
32 | Cc1ccc(-c2csc(N3CCN(CCCn4c(-c5ccncc5)nc5ccccc54)CC3)n2)cc1 | 29.7
33 | CCCOc1ccc2oc(=O)c3c(c2c1)CCCN3C(=O)CN1CCN(c2ncccn2)CC1 | 73.1
34 | COc1cc2c(cc1NC(=O)CN1C(=O)NC3(CCc4ccccc43)C1=O)oc1ccccc12 (centres undefined) | 19.9
35 | Cc1cc(C)c2oc(-c3ccc(C)c(NC(=S)NC(=O)/C=C/c4ccco4)c3)nc2c1 | 77.5
36 | CC1(C)CC(=O)C2=C(C1)NC(Nc1nc3ccccc3o1)=NC2c1ccccn1 (centres undefined) | 2.99
37 | Cc1ccc(C2C3=C(CC(C)(C)CC3=O)N=C3c4ccccc4C(=O)C32)cc1 (centres undefined) | 63.6
38 | CCc1cc2c(=O)c(-c3cnn(-c4ccccc4)c3)c(C)oc2c(CN2CCCCC2)c1O | 32.4
39 | Cc1ccc2nc(-c3ccncc3)cc(-c3ccccc3)c2c1 | 43.8
40 | CNc1ncnc2c1ncn2[C@@H]1O[C@H](CO)[C@@H](O)[C@H]1O | 3.97
41 | Cc1ccc(-c2nc3c(c(=O)c4ccccc4n3C)c(=O)n2Cc2ccco2)cc1 | 25.1
42 | S=C(NCCc1ccccc1)NN=C1CCCCCC1 | 45.8
43 | Cc1ccc(NCCC(=O)c2ccc(Br)cc2)cc1 | 26.4
44 | COc1ccc(Nc2nc(N)c([N+](=O)[O-])c(NC3CCCCC3)n2)cc1 | 18.3

Row | Compound | IC50 [µM]
45 | Oc1ccccc1Nc1nc(NCc2ccccc2)c2ccccc2n1 | 19.1
46 | CC(OC(=O)COc1ccc(Nc2ccccc2)cc1)C(=O)N(C)c1ccccc1 (centres undefined) | 2.16
47 | Cc1cccc(CNc2ncnc3ccc(-c4ccc5c(c4)OCCO5)cc23)c1 | 10.1
48 | COc1cccc(-n2nnc3c(=O)n(CC(=O)N4CCC(Cc5ccccc5)CC4)cnc32)c1 | 51.2
49 | CC1=NN(c2ccc(C)c(C)c2)C(=O)/C1=C\C=C\c1ccc([N+](=O)[O-])o1 | 10.9
50 | CSc1nn(-c2ccc(C(=O)OCC(=O)NC(=O)NC(C)C)cc2)c(=S)s1 | 35.7
51 | CCn1c(SCC(=O)OC2CCCCC2)nc2ccccc2c1=O | 40.3
52 | CC(C)=N/N=C1/NC(=O)C(Cc2ccccc2)S1 (centres undefined) | 76.5
53 | Cc1oc2c(c1C(=O)NCc1cccnc1)C(=O)c1ccccc1C2=O | 12.3
54 | N#CCn1c(CCl)nc2ccccc2c1=O | 22.8
55 | O=C(CN1CCN(Cc2ccc(Cl)cc2)CC1)N/N=C/C=C/c1ccccc1[N+](=O)[O-] | 36.3
56 | COCc1cc(=O)[nH]c(Nc2nc3ccccc3o2)n1 | 26.4
57 | CCOc1ccc(/C=N/OCC(=O)Nc2cc(C)on2)cc1 | 90
58 | CC(C)Oc1ccc(-c2nc(NCC3CCCO3)c3ccccc3n2)cc1 (centres undefined) | 62.3
59 | CC(C)=CCOc1ccc([C@@H]2COc3c(ccc4c3C=CC(C)(C)O4)C2)c(O)c1 | 25.4
60 | COc1ccc2c3n(nc2c1)CCN=C3c1cc(Cl)c(N)c(Cl)c1 | 94.1
61 | COc1ccc(-c2ccc(C#N)c(SCC(=O)OCc3ccccc3)n2)cc1OC | 23.9
62 | Cc1oc(-c2cccc(Cl)c2)nc1CN1CCC(C(=O)N2CCN(c3ccccc3F)CC2)CC1 | 18.7
63 | Nc1n[nH]c(C2CC2)c1N=Nc1ccc(Cl)cc1 | 32.4
64 | O=C(CCSc1ccccn1)c1ccccc1 | 24.6

Same assay, conditions: measured here: IC90 growth inhibition

Row | Compound | IC90 [µM]
65 | Nc1nc2ccccc2n1CCOc1ccccc1Cl | 23.1
66 | COc1ccc(OCc2cccc(C(=O)Nn3cc([N+](=O)[O-])cn3)c2)cc1 | 42.9
67 | O=C(NCCC1=CCCCC1)c1c(O)nc2sccn2c1=O | > 100
68 | O=S(=O)(c1ccc(Cl)cc1)c1snnc1-c1ccccc1 | 29.9
69 | CSc1nsc(SCC(=O)Nc2ccc(F)cc2F)n1 | 98.9
70 | Cc1ccc(-c2csc3ncnc(Nc4ccc(N5CCOCC5)cc4)c23)cc1 | 26.2
71 | CON(C)c1nc(C2CCCCC2)c2cc(C)ccc2n1 | 68.2
72 | CCCCCCCCn1cnc2c(N)c(C)c(C)cc21 | 78.3
73 | N/C(=N\OC(=O)Nc1ccc(Cl)c(Cl)c1)c1ncc(C(F)(F)F)cc1Cl | 35.7
74 | c1ccc(CN2CCN(CCCNc3ccc4nnc(-c5ccccc5)n4n3)CC2)cc1 | 25.3
75 | Cc1ccc2c(c1)c(C1=c3ccccc3=NC1=O)c(O)n2C | 4.82
76 | Cc1nc(N2CCN(c3ccccn3)CC2)c2c(C)c(C(=O)N3CCN(c4ccc(F)cc4)CC3)sc2n1 | 12.9
77 | Clc1cccc(-c2cc3nc4c(c(NCc5ccco5)n3n2)CCCC4)c1 | 24.7
78 | CCN(Cc1ccccc1)c1ccc(/C=N/N=C(N)N)cc1 | 28.1
79 | NC(N)=N/N=C/c1ccc(N(c2ccccc2)c2ccccc2)cc1 | 12.8
80 | COc1ccc(C(=O)C[n+]2ccc3c(c2)nc(-c2cc(OC)c(OC)cc2OC)n3C)cc1 | 13.1
81 | CC12CCC(=O)N1C(C(=O)Nc1ccc(SC(F)F)cc1)CS2 (centres undefined) | > 100
82 | Cc1nc(NC(=O)CC(C)C)sc1-c1csc(Nc2ccc(Cl)cc2Cl)n1 | 83.7
83 | c1cc(Nc2cccc3nccnc23)c2nccnc2c1 | 28.3
84 | N#C/C=C\Oc1ccc(Cl)cc1N | 23.9
85 | CC1=NOC(=O)/C1=C/c1ccc(-c2ccc(Cl)cc2)o1 | > 100
86 | COc1nn(-c2ccccc2)c(=O)c(Cl)c1Cl | 13.6

Row | Compound | IC90 [µM]
87 | O=[N+]([O-])c1ncccc1Oc1nc(-c2cccnc2)nc2ccccc12 | 3.87
88 | Cc1ccc(NCc2ccc(O)c3ncccc23)cc1C | > 100
89 | Cc1nn(Cc2ccccc2Cl)c2sc(C(=O)NCCCn3ccnc3)cc12 | 56
90 | C[C@@H]1CCCCCCCCC(=O)OCCN[C@H](C)CCCCCCCCC(=O)OCCN[C@H](C)CCCCCCCCC(=O)OCCN1 | 43.3
91 | N#C/C(=N/Nc1ccc(OC(F)(F)F)cc1)C(N)=S | 1.74
92 | CCNC(=S)NN=C1c2ccccc2-c2ccccc21 | > 25
93 | COC(=O)c1cc(-c2cccc(OC)c2)on1 | > 100
94 | CCOC(=O)c1ccc(NC(=O)CCc2nc(-c3ccc(Cl)cc3)no2)cc1 | > 100
95 | CC(C)OC(=O)/C(C#N)=C/c1ccc(-c2ccc(SC(F)F)cc2)o1 | 8.24
96 | Cc1ccc(-c2csc(N3CCN(CCCn4c(-c5ccncc5)nc5ccccc54)CC3)n2)cc1 | 48.3
97 | CCCCNc1nc(N(C)c2ccccc2)nc(-n2ccnc2)n1 | > 100
98 | CCCOc1ccc2oc(=O)c3c(c2c1)CCCN3C(=O)CN1CCN(c2ncccn2)CC1 | > 100
99 | COc1cc2c(cc1NC(=O)CN1C(=O)NC3(CCc4ccccc43)C1=O)oc1ccccc12 (centres undefined) | > 100
100 | Cc1cc(C)c2oc(-c3ccc(C)c(NC(=S)NC(=O)/C=C/c4ccco4)c3)nc2c1 | > 100
101 | CC1(C)CC(=O)C2=C(C1)NC(Nc1nc3ccccc3o1)=NC2c1ccccn1 (centres undefined) | 6.27
102 | Cc1ccc(C2C3=C(CC(C)(C)CC3=O)N=C3c4ccccc4C(=O)C32)cc1 (centres undefined) | 87.5
103 | CCc1cc2c(=O)c(-c3cnn(-c4ccccc4)c3)c(C)oc2c(CN2CCCCC2)c1O | 52.4
104 | Cc1ccc2nc(-c3ccncc3)cc(-c3ccccc3)c2c1 | 48.6
105 | CNc1ncnc2c1ncn2[C@@H]1O[C@H](CO)[C@@H](O)[C@H]1O | 9.18
106 | Cc1ccc(-c2nc3c(c(=O)c4ccccc4n3C)c(=O)n2Cc2ccco2)cc1 | 40.2
107 | S=C(NCCc1ccccc1)NN=C1CCCCCC1 | 50.1
108 | Cc1ccc(NCCC(=O)c2ccc(Br)cc2)cc1 | 43.8

Row | Compound | IC90 [µM]
109 | COc1ccc(Nc2nc(N)c([N+](=O)[O-])c(NC3CCCCC3)n2)cc1 | 26.3
110 | Oc1ccccc1Nc1nc(NCc2ccccc2)c2ccccc2n1 | 24.1
111 | CC(OC(=O)COc1ccc(Nc2ccccc2)cc1)C(=O)N(C)c1ccccc1 (centres undefined) | 10.9
112 | Cc1cccc(CNc2ncnc3ccc(-c4ccc5c(c4)OCCO5)cc23)c1 | 12.7
113 | COc1cccc(-n2nnc3c(=O)n(CC(=O)N4CCC(Cc5ccccc5)CC4)cnc32)c1 | > 100
114 | CC1=NN(c2ccc(C)c(C)c2)C(=O)/C1=C\C=C\c1ccc([N+](=O)[O-])o1 | 17.7
115 | CSc1nn(-c2ccc(C(=O)OCC(=O)NC(=O)NC(C)C)cc2)c(=S)s1 | 48.9
116 | CCn1c(SCC(=O)OC2CCCCC2)nc2ccccc2c1=O | 55.1
117 | CC(C)=N/N=C1/NC(=O)C(Cc2ccccc2)S1 (centres undefined) | 97.2
118 | Cc1oc2c(c1C(=O)NCc1cccnc1)C(=O)c1ccccc1C2=O | 14.2
119 | N#CCn1c(CCl)nc2ccccc2c1=O | 25.8
120 | O=C(CN1CCN(Cc2ccc(Cl)cc2)CC1)N/N=C/C=C/c1ccccc1[N+](=O)[O-] | 45.6
121 | COCc1cc(=O)[nH]c(Nc2nc3ccccc3o2)n1 | 48
122 | CCOc1ccc(/C=N/OCC(=O)Nc2cc(C)on2)cc1 | > 100
123 | CC(C)Oc1ccc(-c2nc(NCC3CCCO3)c3ccccc3n2)cc1 (centres undefined) | 98.3
124 | CC(C)=CCOc1ccc([C@@H]2COc3c(ccc4c3C=CC(C)(C)O4)C2)c(O)c1 | 43
125 | COc1ccc2c3n(nc2c1)CCN=C3c1cc(Cl)c(N)c(Cl)c1 | 97.7
126 | COc1ccc(-c2ccc(C#N)c(SCC(=O)OCc3ccccc3)n2)cc1OC | 26.8
127 | Cc1oc(-c2cccc(Cl)c2)nc1CN1CCC(C(=O)N2CCN(c3ccccc3F)CC2)CC1 | 26.4
128 | Nc1n[nH]c(C2CC2)c1N=Nc1ccc(Cl)cc1 | 54.3
129 | O=C(CCSc1ccccn1)c1ccccc1 | 34.1
